From US20100009920A1, “TTK AS TUMOR MARKER AND THERAPEUTIC TARGET FOR LUNG CANCER” (priority 2006, published 2010)
Entries after “also recorded” stand apart in the source; their conditions may differ. Where two headings read alike, the source gives them in different places.

Tests used:
Type in all cases: cell-based, human
TTK = TTK protein level in A549 cells after RNAi (western blot)
Method: (§1) Cells were lysed with RIPA buffer [50 mM Tris-HCl (pH 8.0), 150 mM NaCl, 1% NP-40, 0.5% deoxychorate-Na, 0.1% SDS] containing Protease Inhibitor Cocktail Set III (CALBIOCHEM) and phosphatase inhibitor (1 mM sodium fluoride, 1 mM sodium orthovanadate, 2 mM imidazole, 4 mM sodium tartrate). Cytoplasmic and nuclear extractions were isolated by NE-PER Nuclear and Cytoplasmic Extraction Reagents (PIERCE). Protein samples were separated by SDS-polyacrylamide gels and electroblotted onto Hybond-ECL nitrocellulose membranes (GE Healthcare Bio-sciences). […] Antigen-antibody complexes were detected using secondary antibodies conjugated to horseradish peroxidase (GE Healthcare Bio-sciences). […]

A549 cells = test: Microscopic observation of cell morphology (phase contrast images); conditions: non-treated cells as control
Method: (§2) The oligo-siRNAs (Dharmacon, Inc., Lafayette, Colo.) ([…]) were transfected into appropriate lung-cancer cell lines using 30 micro-1 of Lipofectamine 2000 (Invitrogen, Carlsbad, Calif.) following the manufacturer's protocol. The ribonucleotide sequences corresponding to following sequences were used as the oligo-siRNA.
The endogenous association between TTK and EGFR in lung cancer cells was also investigated by immunoprecipitaion experiment using extracts from A549 cells, and the interaction between these two proteins regardless the EGF-stimulation was detected (FIG. 4b). To further examine the relevance of TTK to EGFR signaling, TTK or EGFR function in A549 cells were suppressed and cell morphology was microscopically observed.

PLCγ1 and p44/42 MAPK = test: Western blot of PLCγ and p44/42 MAPK in A549 cells after RNAi
Method: (§3) Cells were lysed with RIPA buffer [50 mM Tris-HCl (pH 8.0), 150 mM NaCl, 1% NP-40, 0.5% deoxychorate-Na, 0.1% SDS] containing Protease Inhibitor Cocktail Set III (CALBIOCHEM) and phosphatase inhibitor (1 mM sodium fluoride, 1 mM sodium orthovanadate, 2 mM imidazole, 4 mM sodium tartrate). Cytoplasmic and nuclear extractions were isolated by NE-PER Nuclear and Cytoplasmic Extraction Reagents (PIERCE). Protein samples were separated by SDS-polyacrylamide gels and electroblotted onto Hybond-ECL nitrocellulose membranes (GE Healthcare Bio-sciences). Blots were incubated with a mouse monoclonal anti-Mps1 (TTK) antibody (Upstate), rabbit polyclonal anti-phospho-EGFR antibodies (Tyr-845, Tyr-992, Tyr-1045, Tyr-1068, […], and Tyr-1173; Cell Signaling Technology, Inc.), a rabbit polyclonal anti-EGFR antibody (Cell Signaling Technology, Inc.), a rabbit polyclonal anti-phospho-PLCgamma1 (Tyr-771) antibody (Cell Signaling Technology, Inc.), a rabbit polyclonal anti-PLCgamma1 antibody (Cell Signaling Technology, Inc.), a rabbit polyclonal anti-phospho-p44/42 MAPK (Thr202/Tyr204) antibody (Cell Signaling Technology, Inc.), a rabbit polyclonal anti-p44/42 MAPK antibody (Cell Signaling Technology, Inc.), a mouse monoclonal anti-Flag antibody (SIGMA) or a mouse monoclonal anti-beta-actin antibody (SIGMA). Anti-phospho-EGFR (Ser-967) antibodies were raised against Ser-967-phosphorylated synthetic peptides and purified with the phosphopeptide column. Antigen-antibody complexes were detected using secondary antibodies conjugated to horseradish peroxidase (GE Healthcare Bio-sciences). Protein bands were visualized by ECL Western Blotting Detection Reagents (GE Healthcare Bio-sciences).
as §2

phospho-EGFR (Ser-967) = test: Phospho-EGFR (Ser-967) level in A549 cells after RNAi (immunofluorescence)
Method: as §1
Cultured cells were fixed with 4% paraformaldehyde solution for 15 min at 37° C., or 10% Trichloro acetic acid for 15 min on ice. […] Images were viewed and assessed using a confocal microscope at wavelengths of 488, 594 nm (TCS SP2 AOBS: Leica Microsystems). […]

phospho-EGFR (Tyr-992) = test: Phospho-EGFR (Tyr-992) level in A549 cells after RNAi (immunofluorescence, western blot); conditions: for phosphorylation level of EGFR Tyr-992, western blot: A549 cells; for phospho-EGFR (Tyr-992), immunofluorescence: serum-starved A549 cells
Method: as §3
Cultured cells were fixed with 4% paraformaldehyde solution for 15 min at 37° C., or 10% Trichloro acetic acid for 15 min on ice. Fixed cells were incubated in PBS(−) containing 0.1% Triton X-100 for 10 min and subsequently washed with PBS(−). Prior to the primary antibody reaction, fixed cells were covered with CAS-BLOCK (ZYMED Laboratories Inc.) for 10 min to block non-specific-antibody binding. Then the cells were incubated with a mouse monoclonal anti-Mps1 (TTK) antibody (Upstate) and a rabbit polyclonal anti-phospho-EGFR (Tyr-992) (Cell Signaling Technology, Inc.), or a rabbit polyclonal anti-phospho-p44/42 MAPK (Thr202/Tyr204) antibody (Cell Signaling Technology, Inc.), or a mouse monoclonal anti-Flag antibody (SIGMA). Antibodies were stained with an anti-mouse secondary antibody conjugated to Alexa Fluor 488 (Molecular Probes) and an anti-rabbit secondary antibody conjugated to Alexa Fluor 594 (Molecular Probes). […] Images were viewed and assessed using a confocal microscope at wavelengths of 488, 594 nm (TCS SP2 AOBS: Leica Microsystems). […]

[1] = listed as RNAi (oligo) against TTK

**Q.** With “CAAGATGTGTTAAAGTGTTTT (listed as DNA, chemistry not given here) [RNAi-TTK (oligo)]” as the sequence, how does the TTK protein (TTK) read?
**A.** Its TTK protein is “Reduction; also recorded: suppression”.

**Q.** What about the cell morphology (A549 cells) of the same sequence?
**A.** The cell morphology was “became much larger with multiple nuclei”.

**Q.** And the “amount of PLCγ protein” value (PLCγ1 and p44/42 MAPK)?
**A.** The value was “did not affect”.

**Q.** What about the “amount of p44/42 MAPK protein” value (PLCγ1 and p44/42 MAPK) of the same sequence?
**A.** Its value is “did not affect”.

**Q.** What about the “phospho-PLCγ (Tyr-771)” value (PLCγ1 and p44/42 MAPK) of the same sequence?
**A.** The value was “decrease”.

**Q.** What about the “phosphorylation of p44/42 MAPK (Thr202/Tyr204)” value (PLCγ1 and p44/42 MAPK) of the same sequence?
**A.** Its value is “decrease”.

**Q.** And the “phospho-PLCγ (Tyr-771)” value (PLCγ1 and p44/42 MAPK; [1])?
**A.** The value was “reduced”.

**Q.** And the “phosphorylation of p44/42 MAPK (Thr202/Tyr204)” value (PLCγ1 and p44/42 MAPK; [1])?
**A.** The value was “reduced”.

**Q.** And the “levels of phospho-EGFR Ser-967, immunofluorescence” value (phospho-EGFR (Ser-967))?
**A.** The value was “decreased significantly”.

**Q.** What about the “levels of phospho-EGFR Ser-967, immunofluorescence” value (phospho-EGFR (Ser-967); [1]) of the same sequence?
**A.** Its value is “reduced”.

**Q.** And the “phosphorylation level of EGFR Tyr-992, western blot” value (phospho-EGFR (Tyr-992))?
**A.** Its value is “decreased”.

**Q.** What about the “phosphorylation level of EGFR Tyr-992, western blot” value (phospho-EGFR (Tyr-992); [1]) of the same sequence?
**A.** Its value is “reduced”.

**Q.** What about the “phospho-EGFR (Tyr-992), immunofluorescence” value (phospho-EGFR (Tyr-992)) of the same sequence?
**A.** Its value is “significantly decreased”.

**Q.** And the “phospho-EGFR (Tyr-992), immunofluorescence” value (phospho-EGFR (Tyr-992); listed as si-TTK)?
**A.** Its value is “reduced”.
